Structures can show the parent of a compound that is named as a salt.
How the values were obtained:
K. pn GC 1510 (TEM-10) = test: MIC microbroth dilution; β-lactamase class A (ESBL); format: cell-based, K. pneumoniae; conditions: Klebsiella pneumoniae, Cefepime + 4 ug/ml Compound 2, read-out: MIC
Procedure: (§1) The in vitro activities of the antibiotics were determined by the microbroth dilution method as recommended by the National Committee for Clinical Laboratory Standards (NCCLS). (NCCLS. 2000. Methods for Dilution Antimicrobial Susceptibility Tests for Bacteria That Grow Aerobically; Approved Standards: M7-A5, vol. 19. National Committee for Clinical Laboratory Standards, Villanova, Pa.). Mueller-Hinton II broth (MHBII)(BBL Cockeysville, Md.), was used for the testing procedure. […]. The plates were incubated for 18-22 hours at 35° C. in ambient air.

K. pn GC 1516 (TEM-26) = test: as above; format: cell-based, K. pneumoniae; conditions: Klebsiella pneumoniae, Cefepime + 4 ug/ml Compound 2, read-out: MIC
Procedure: as §1

K. pn GC 1830 (SHV-2) = test: as above; format: cell-based, K. pneumoniae; conditions: Klebsiella pneumoniae, Cefepime + 4 ug/ml Compound 2, read-out: MIC
Procedure: as §1

K. pn GC 1832 (SHV-4) = test: as above; format: cell-based, K. pneumoniae; conditions: Klebsiella pneumoniae, Cefepime + 4 ug/ml Compound 2, read-out: MIC
Procedure: as §1

K. pn GC 6639 (SHV-13) = test: as above; format: cell-based, K. pneumoniae; conditions: Klebsiella pneumoniae, Cefepime + 4 ug/ml Compound 2, read-out: MIC
Procedure: as §1

[1] = system: K. pn GC 1507 (TEM-9 + SHV-1); test: MIC microbroth dilution; β-lactamase class A, A (ESBL); format: cell-based, K. pneumoniae; conditions: Klebsiella pneumoniae, Cefepime + 4 ug/ml Compound 2, read-out: MIC
Procedure: as §1

[2] = system: K. pn GC 1554 (TEM-1 + TEM-26 + SHV-1); test: as above; format: cell-based, K. pneumoniae; conditions: Klebsiella pneumoniae, Cefepime + 4 ug/ml Compound 2, read-out: MIC
Procedure: as §1

[3] = system: K. pn GC 1963 (TEM-10 + SHV-1 + SHV-ESBL); test: as above; format: cell-based, K. pneumoniae; conditions: Klebsiella pneumoniae, Cefepime + 4 ug/ml Compound 2, read-out: MIC
Procedure: as §1

[4] = system: K. pn GC 2006 (TEM-10 + SHV-1); test: as above; format: cell-based, K. pneumoniae; conditions: Klebsiella pneumoniae, Cefepime + 4 ug/ml Compound 2, read-out: MIC
Procedure: as §1

[5] = system: K. pn GC 3057 (CAZ-R; P/T-R); test: as above; format: cell-based, K. pneumoniae; conditions: Klebsiella pneumoniae, Cefepime + 4 ug/ml Compound 2, read-out: MIC
Procedure: as §1

[6] = system: K. pn GC 6488 (TEM-1 + SHV-5 + SHV-7); test: as above; format: cell-based, K. pneumoniae; conditions: Klebsiella pneumoniae, Cefepime + 4 ug/ml Compound 2, read-out: MIC
Procedure: as §1

[7] = system: K. pn GC 6494 (TEM-1 + SHV-5); test: as above; format: cell-based, K. pneumoniae; conditions: Klebsiella pneumoniae, Cefepime + 4 ug/ml Compound 2, read-out: MIC
Procedure: as §1

[8] = system: K. pn GC 6651 (TEM-1 + SHV-1 + SHV-5); test: as above; format: cell-based, K. pneumoniae; conditions: Klebsiella pneumoniae, Cefepime + 4 ug/ml Compound 2, read-out: MIC
Procedure: as §1

[9] = system: K. pn GC 6657 (TEM-1 + SHV-27); test: as above; format: cell-based, K. pneumoniae; conditions: Klebsiella pneumoniae, Cefepime + 4 ug/ml Compound 2, read-out: MIC
Procedure: as §1

[10] = system: E. cloacae GC 1477 (AmpC); test: MIC microbroth dilution; β-lactamase class C; format: cell-based; conditions: Enterobacter cloacae, Cefepime + 4 ug/ml Compound 2, read-out: MIC
Procedure: as §1

[11] = system: E. cloacae PT 1494 Inducible AmpC; test: MIC microbroth dilution; β-lactamase class C; format: cell-based; conditions: Enterobacter cloacae, Cefepime + 4 ug/ml Compound 2, read-out: MIC
Procedure: as §1

[12] = system: E. cloacae PT 967 Inducible AmpC; test: MIC microbroth dilution; β-lactamase class C; format: cell-based; conditions: Enterobacter cloacae, Cefepime + 4 ug/ml Compound 2, read-out: MIC
Procedure: as §1

E. coli GC 6539 CMY-2 = test: MIC microbroth dilution; β-lactamase class C; format: cell-based; conditions: Escherichia coli, GC6539CMY2, Cefepime + 4 ug/ml Compound 2, read-out: MIC
Procedure: as §1

[13] = system: K. pneumoniae GC 7822 Act 1; test: MIC microbroth dilution; β-lactamase class C; format: cell-based; conditions: Klebsiella pneumoniae, GC7822ACT1, Cefepime + 4 ug/ml Compound 2, read-out: MIC
Procedure: as §1

[14] = system: P. aeruginosa GC 1764 (AmpC); test: MIC microbroth dilution; β-lactamase class C; format: cell-based; conditions: Pseudomonas aeruginosa, Cefepime + 4 ug/ml Compound 2, read-out: MIC
Procedure: as §1

[15] = system: P. aeruginosa PT 8411 PTZ-R; test: MIC microbroth dilution; format: cell-based; conditions: Pseudomonas aeruginosa, PT8411PTZR, Cefepime + 4 ug/ml Compound 2, read-out: MIC
Procedure: as §1

[16] = system: P. aeruginosa PT 8503 PTZ-R; test: MIC microbroth dilution; format: cell-based; conditions: Pseudomonas aeruginosa, PT8503PTZR, Cefepime + 4 ug/ml Compound 2, read-out: MIC
Procedure: as §1

[17] = system: P. aeruginosa PT 9236 PTZ-R; test: MIC microbroth dilution; format: cell-based; conditions: Pseudomonas aeruginosa, PT9236PTZR, Cefepime + 4 ug/ml Compound 2, read-out: MIC
Procedure: as §1

[18] = system: P. aeruginosa PT 9587 PTZ-R; test: MIC microbroth dilution; format: cell-based; conditions: Pseudomonas aeruginosa, PT9587PTZR, Cefepime + 4 ug/ml Compound 2, read-out: MIC
Procedure: as §1

[19] = system: K. pn GC 3104 (MIR-1 + TEM-1); test: MIC microbroth dilution; β-lactamase class A, C; format: cell-based, K. pneumoniae; conditions: Klebsiella pneumoniae, Cefepime + 4 ug/ml Compound 2, read-out: MIC
Procedure: as §1

[20] = system: K. pn GC 6655 (TEM-1 + ACT-1); test: MIC microbroth dilution; β-lactamase class A, C; format: cell-based, K. pneumoniae; conditions: Klebsiella pneumoniae, Cefepime + 4 ug/ml Compound 2, read-out: MIC
Procedure: as §1

[21] = system: S. marcescens GC 1781 (Sme-1 + AmpC); test: MIC microbroth dilution; β-lactamase class A (Cb'ase), C; format: cell-based; conditions: Serratia marcescens, Cefepime + 4 ug/ml Compound 2, read-out: MIC
Procedure: as §1

E. coli GC 1480 OXA-1 = test: MIC microbroth dilution; β-lactamase class D; format: cell-based; conditions: Escherichia coli, GC1480OXA1, E. coli GC 1480; Cefepime + 4 ug/ml Compound 2; read-out: MIC
Procedure: as §1

E. coli GC 1807 OXA-7 = test: MIC microbroth dilution; β-lactamase class D; format: cell-based; conditions: Escherichia coli, GC1807OXA7, E. coli GC 1807; Cefepime + 4 ug/ml Compound 2; read-out: MIC
Procedure: as §1

[22] = system: E. coli GAR 6649 TEM, OXA, CTX (By PCR only); test: MIC microbroth dilution; β-lactamase class A, A (ESBL), D; format: cell-based; conditions: Escherichia coli, Cefepime + 4 ug/ml Compound 2, read-out: MIC
Procedure: as §1

[23] = system: E. coli GAR 5929 TEM, OXA, Act-1, CTX (By PCR only); test: MIC microbroth dilution; β-lactamase class A, C, D; format: cell-based; conditions: Escherichia coli, Cefepime + 4 ug/ml Compound 2, read-out: MIC
Procedure: as §1

[24] = system: A. baumannii PT 8321 PTZ-R; test: MIC microbroth dilution; β-lactamase class not determined; format: cell-based; conditions: Acinetobacter baumannii, PT8321PTZR, Cefepime + 4 ug/ml Compound 2, read-out: MIC
Procedure: as §1

[25] = system: A. baumannii PT 9158 PTZ-R; test: as above; format: cell-based; conditions: Acinetobacter baumannii, PT9158PTZR, Cefepime + 4 ug/ml Compound 2, read-out: MIC
Procedure: as §1

Molecule `O=C(O)C1=CS[C@@H]2/C(=C\c3cn4c(n3)COCC4)C(=O)N12` [Compound 2, (5R), (6Z)-6-(5,6-Dihydro-8H-imidazo[2.1-c][1,4]oxazin-2-ylmethylene)-7-oxo-4-thia-1-azabicyclo[3.2.0]hept-2-ene-2-carboxylic Acid, Sodium Salt] has an MIC (K. pn GC 1510 (TEM-10)) of 0.03 µg/mL, an MIC (K. pn GC 1516 (TEM-26)) of 0.25 µg/mL and an MIC (K. pn GC 1830 (SHV-2)) of 0.06 µg/mL. It also gave an MIC (K. pn GC 1832 (SHV-4)) of 0.06 µg/mL, an MIC (K. pn GC 6639 (SHV-13)) of 0.12 µg/mL and an MIC [1] of 0.06 µg/mL. For the same molecule, the MIC [2] was 0.12 µg/mL, the MIC [3] was 0.25 µg/mL and the MIC [4] was 0.25 µg/mL. The MIC [5] was 0.12 µg/mL, the MIC [6] was 0.5 µg/mL and the MIC [7] was 0.12 µg/mL. It also gave an MIC [8] of 0.12 µg/mL, an MIC [9] of 0.06 µg/mL and an MIC [10] of 0.25 µg/mL. The MIC [11] was 0.06 µg/mL, the MIC [12] was 0.12 µg/mL and the MIC (E. coli GC 6539 CMY-2) was 0.06 µg/mL. For the same molecule, the MIC [13] was 0.5 µg/mL, the MIC [14] was 1 µg/mL and the MIC [15] was 4 µg/mL. It also gave an MIC [16] of 2 µg/mL, an MIC [17] of 16 µg/mL and an MIC [18] of 2 µg/mL. It also gave an MIC [19] of 0.5 µg/mL, an MIC [20] of 0.12 µg/mL and an MIC [21] of 0.06 µg/mL. The MIC (E. coli GC 1480 OXA-1) was 0.06 µg/mL, the MIC (E. coli GC 1807 OXA-7) was 0.03 µg/mL and the MIC [22] was 1 µg/mL. It also gave an MIC [23] of 0.12 µg/mL, an MIC [24] greater than 16 µg/mL and an MIC [25] of 16 µg/mL.

Reference: US20070129344A1, “Bicyclic 6-alkylidene-penem beta-lactamase inhibitors and beta-lactam antibiotic combination: a broad spectrum antibiotic” (priority 2005, published 2007)
